pIC50: −log10 of the molar value.
How the values were obtained:
MMP-9 = MMP-9 (Homo sapiens, UniProt P14780); test: Assay for inhibitory activities on MMPs (fluorogenic peptide substrate), MMP-9; format: biochemical
In short: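 ProMMP-9 purified from TPA-stimulated HT1080 cells and activated with TPCK-trypsin, assayed with fluorogenic MOCAc-Pro-Leu-Gly-Leu-A2Pr(DNP)-Ala-Arg-NH2. Percent inhibition from fluorescence of reactions with and without enzyme and inhibitor; IC50 as concentration giving 50% inhibition.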

MMP-2 = target: T1, MMP-2 (Homo sapiens, UniProt P08253); test: Assay for inhibitory activities on MMPs (fluorogenic peptide substrate), MMP-2; format: biochemical
T1 sequence (P08253 110-660): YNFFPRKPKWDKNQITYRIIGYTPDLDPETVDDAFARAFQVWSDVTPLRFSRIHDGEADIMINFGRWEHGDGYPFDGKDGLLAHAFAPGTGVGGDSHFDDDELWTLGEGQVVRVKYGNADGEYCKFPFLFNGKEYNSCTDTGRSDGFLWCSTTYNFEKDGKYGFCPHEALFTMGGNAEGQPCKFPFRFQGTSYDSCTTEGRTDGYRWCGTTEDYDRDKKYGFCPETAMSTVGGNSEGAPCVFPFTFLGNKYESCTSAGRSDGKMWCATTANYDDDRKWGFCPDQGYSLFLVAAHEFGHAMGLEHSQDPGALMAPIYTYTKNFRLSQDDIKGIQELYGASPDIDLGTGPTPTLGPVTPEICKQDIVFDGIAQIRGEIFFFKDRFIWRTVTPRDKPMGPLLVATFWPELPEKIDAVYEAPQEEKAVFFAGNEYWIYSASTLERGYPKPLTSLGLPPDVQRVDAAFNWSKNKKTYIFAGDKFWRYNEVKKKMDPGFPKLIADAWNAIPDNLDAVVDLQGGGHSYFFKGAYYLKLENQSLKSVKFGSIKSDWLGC
In short: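 Human MMP-2 activity measured with fluorogenic MOCAc-Pro-Leu-Gly-Leu-A2Pr(DNP)-Ala-Arg-NH2 substrate. Percent inhibition derived from fluorescence with and without enzyme and inhibitor, corrected for substrate and inhibitor background. IC50 taken as concentration giving 50% inhibition.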

MMP-8 = target: T2, MMP-8 (Homo sapiens, UniProt P22894); test: Assay for inhibitory activities on MMPs (fluorogenic peptide substrate), MMP-8; format: biochemical
T2 construct: In regard to MMP-8, catalytic domain (^99Phe˜^262Gly) was amplified with PCR; His-tag; enterokinase digestion-site
In short: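 Human MMP-8 catalytic domain (Phe99–Gly262), His-tagged, E. coli-expressed, urea-solubilised, refolded. Fluorogenic substrate MOCAc-Pro-Leu-Gly-Leu-A2Pr(DNP)-Ala-Arg-NH2; fluorescence read with enzyme/inhibitor, substrate/inhibitor, enzyme-only and substrate-only wells. % inhibition = {1-(A−B)/(C−D)}×100; IC50 is concentration giving 50% inhibition.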

MMP-13 = target: T3, MMP-13 (Homo sapiens, UniProt P45452); test: Assay for inhibitory activities on MMPs (fluorogenic peptide substrate), MMP-13; format: biochemical
T3 construct: catalytic domain (^104Tyr˜^267Gly) was amplified with RT-PCR; His-tag; enterokinase digestion-site
In short: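 Catalytic domain cloned from IL-1/TNF-stimulated SW1353 cells, His-tagged and expressed in E. coli, then refolded from urea. Activity read by fluorescence on the MOCAc peptide substrate. IC50 taken from % inhibition = {1-(A-B)/(C-D)}×100, with blanks lacking enzyme and/or inhibitor.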

MMP-12 = target: T4, MMP-12 (Homo sapiens, UniProt P39900); test: Assay for inhibitory activities on MMPs (fluorogenic peptide substrate), MMP-12; format: biochemical
T4 construct: In regard to MMP-12, catalytic domain (^100Phe˜^263Gly) was amplified with RT-PCR; His-tag; enterokinase digestion-site
In short: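 Refolded His-tagged human MMP-12 catalytic domain (Phe100–Gly263) expressed in E. coli, assayed with fluorogenic substrate MOCAc-Pro-Leu-Gly-Leu-A2Pr(DNP)-Ala-Arg-NH2. Percent inhibition calculated from fluorescence with and without enzyme and inhibitor, corrected for inhibitor-only and substrate-only blanks; IC50 is concentration giving 50% inhibition.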

Rat osteoarthritis model = test: Inhibition of disease progression in the rat osteoarthritis model; format: in vivo; settings: female SD rats, medial meniscectomy and collateral ligament transection; 10 mg/kg orally twice daily for 6 weeks
Experimental: Rat osteoarthritis model was prepared according to the procedure reported by Meacock et al. (J. Exp. Path. 71, 279-293, 1990), by medial meniscectomy and collateral ligament transection on the right knee of 12 weeks old female SD rats (Charles River Japan). 0.5% methylcellulose or compounds (II-3) or (III-11) (10 mg/kg) were orally administered twice daily from the following day of the surgery for 6 weeks.
On the next day of final administration, tibial plateaus were removed. The surfaces of the tibial plateau were stained with India ink (Kuretake), and then photographed using a digital camera (Nikon). The progressive level of OA lesion was scored using a photographic image thereof.

T2 sequence (P22894 99-262): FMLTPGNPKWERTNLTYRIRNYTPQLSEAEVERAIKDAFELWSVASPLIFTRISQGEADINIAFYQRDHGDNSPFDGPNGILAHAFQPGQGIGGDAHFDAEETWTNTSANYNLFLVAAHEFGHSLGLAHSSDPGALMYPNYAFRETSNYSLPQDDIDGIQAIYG
T4 sequence (P39900 100-263): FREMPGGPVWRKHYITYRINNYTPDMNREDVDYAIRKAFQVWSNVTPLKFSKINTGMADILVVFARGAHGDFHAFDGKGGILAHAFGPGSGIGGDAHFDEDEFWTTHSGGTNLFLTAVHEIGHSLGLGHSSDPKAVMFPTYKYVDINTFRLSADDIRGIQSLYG
Sequence of MMP-9 (P14780 107-707): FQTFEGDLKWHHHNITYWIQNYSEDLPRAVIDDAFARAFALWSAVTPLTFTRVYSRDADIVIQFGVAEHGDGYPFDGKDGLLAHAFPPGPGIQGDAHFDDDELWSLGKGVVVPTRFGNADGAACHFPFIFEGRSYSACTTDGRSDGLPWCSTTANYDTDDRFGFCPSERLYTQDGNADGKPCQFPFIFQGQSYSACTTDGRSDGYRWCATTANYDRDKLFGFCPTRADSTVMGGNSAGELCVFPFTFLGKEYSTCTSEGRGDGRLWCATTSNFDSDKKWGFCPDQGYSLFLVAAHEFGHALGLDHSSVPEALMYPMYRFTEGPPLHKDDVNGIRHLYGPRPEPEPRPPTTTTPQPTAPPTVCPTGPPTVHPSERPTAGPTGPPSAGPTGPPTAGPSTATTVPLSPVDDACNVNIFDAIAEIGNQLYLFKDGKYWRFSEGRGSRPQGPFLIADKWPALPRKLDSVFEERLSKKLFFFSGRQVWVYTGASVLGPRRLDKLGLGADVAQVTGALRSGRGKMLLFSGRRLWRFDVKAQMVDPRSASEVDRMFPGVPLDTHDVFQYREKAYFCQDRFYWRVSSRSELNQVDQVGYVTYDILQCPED

Row | SMILES | pIC50 (MMP-9) | pIC50 (MMP-2) | pIC50 (MMP-8) | pIC50 (MMP-13) | pIC50 (MMP-12) | inhibitory activities (progressive level of OA lesion, scored) (Rat osteoarthritis model) [%]
1 | O=C(Nc1ccc(-c2ccc(S(=O)(=O)N[C@H](Cc3ccccc3)C(=O)O)cc2)cc1)c1cc2ccccc2s1 [VI-47] | < 5.00 | < 5.00 | < 5.00 | 6.87 | < 5.00 | –
2 | COc1ccc2cc(C#Cc3ccc(-c4ccc(S(=O)(=O)N[C@H](CO)C(=O)O)cc4)cc3)ccc2c1 [III-44] | < 5.00 | 5.30 | < 5.00 | 8.46 | 5.28 | –
3 | C[C@H](NS(=O)(=O)c1ccc(-c2ccc(C#Cc3ccc4ccccc4c3)cc2)cc1)C(=O)O [III-3] | < 5.00 | < 5.00 | 7.25 | 8.10 | 7.15 | –
4 | O=C(O)[C@@H](Cc1ccccc1)NS(=O)(=O)c1ccc(-c2ccc(C#Cc3ccc4ccccc4c3)cc2)cc1 [III-11] | < 5.00 | 6.79 | 6.89 | – | 5.70 | 77.2
5 | COc1ccc2cc(C#Cc3ccc(-c4ccc(S(=O)(=O)N[C@@H](CO)C(=O)O)cc4)cc3)ccc2c1 [III-45] | < 5.00 | < 5.00 | < 5.00 | 7.71 | < 5.00 | –
6 | COc1ccc2cc(C#Cc3ccc(-c4ccc(S(=O)(=O)N[C@@H](CCSC)C(=O)O)cc4)cc3)ccc2c1 [III-25] | < 5.00 | 5.54 | 7.05 | 7.62 | 6.93 | –
7 | COc1ccc(C(=O)Nc2ccc(-c3ccc(S(=O)(=O)N[C@H](Cc4ccccc4)C(=O)O)cc3)cc2)cc1OC [VI-8] | < 5.00 | 5.98 | 6.14 | 7.57 | 6.08 | –

Further lines, with some results ahead:

Row | pIC50 (MMP-9) | pIC50 (MMP-2) | pIC50 (MMP-8) | pIC50 (MMP-13) | pIC50 (MMP-12) | SMILES | inhibitory activities (progressive level of OA lesion, scored) (Rat osteoarthritis model) [%]
8 | < 5.00 | 7.14 | 7.40 | 8.34 | 7.32 | CC(C)[C@@H](NS(=O)(=O)c1ccc(-c2ccc(C#Cc3ccc4ccccc4c3)cc2)cc1)C(=O)O [III-4] | –
9 | < 5.00 | < 5.00 | 5.11 | 6.65 | < 5.00 | O=C(O)[C@@H](CC1CCCCC1)NS(=O)(=O)c1ccc(-c2ccc(C#Cc3ccc4ccccc4c3)cc2)cc1 [III-15] | –
10 | < 5.00 | < 5.00 | < 5.00 | 7.67 | < 5.00 | O=C(Nc1ccc(-c2ccc(S(=O)(=O)N[C@H](Cc3ccccc3)C(=O)O)cc2)cc1)c1ccc2ccccc2c1 [VI-10] | –
11 | < 5.00 | < 5.00 | 5.28 | 7.10 | < 5.00 | COc1ccc2cc(C#Cc3ccc(-c4ccc(S(=O)(=O)N[C@@H](Cc5ccccc5)C(=O)O)cc4)cc3)ccc2c1 [III-29] | –
12 | < 5.00 | < 5.00 | < 5.00 | 7.70 | < 5.00 | COc1ccc2cc(C#Cc3ccc(-c4ccc(S(=O)(=O)N[C@@H](C)C(=O)O)cc4)cc3)ccc2c1 [III-18] | –
13 | < 5.00 | 5.43 | 6.85 | 7.58 | 7.02 | CC(C)[C@@H](NS(=O)(=O)c1ccc(-c2ccc(COc3ccc4ccccc4c3)cc2)cc1)C(=O)O [VII-12] | –

Source: patent publication US20080119513A1, “Sulfonamide Derivative Selectively Inhibiting Mmp-13” (priority 2004, published 2008)
